Assay results reported in patent publication US4558142A, “7-Fluoro-prostacyclin analogs” (Hoffmann-La Roche Inc., priority 1982, dated 1985).

Tested on: platelet aggregation
Test: inhibition of arachidonic acid-induced platelet aggregation in beagle platelet rich plasma (PRP), light transmission
Assay type: cell-based
Conditions: Canis lupus familiaris, arachidonic acid inducer, 37°
Description: That the prostacyclins of formulas I-A and I-B of this invention are active as anti-blood platelet aggregating agents can be seen from the administration of (5Z,7β,9α,11α,13E,15R)-7-fluoro-6,9-epoxy-11,15-dihydroxy-16,16-dimethyl-prosta-5,13-dien-1-oic acid methyl ester by the following test.
30 Ml. of blood was drawn from the jugular vein of a conscious beagle using two 15 ml. Vacutainer tubes, with no additive, connected to a 20 g. 1 inch multiple sample needle. The blood was immediately transferred to a 50 ml. conical plastic centrifuge tube containing 3 ml. of 3.8% sodium citrate (3.8 grams of sodium citrate crystal, Na3 C6 H5 O7.2H2 O, in 100 ml. of distilled water), capped and gently mixed. The citrated blood was centrifuged at 160 g. for 15 minutes at 20° C. The platelet rich plasma (PRP) was carefully withdrawn with a pipette, without disturbing the buffy coat and erythrocyte layers. The PRP was placed in 16×125 mm plastic tubes, capped and stored at room temperature 19°-21° C. PRP preparations showing a tinge of redness, indicative of hemolysis, were discarded. The remaining blood, after the removal of PRP, was recentrifuged at higher speed, 900 g. for 10 minutes, to yield platelet poor plasma (PPP). The PRP was used immediately and the aggregation study completed within three hours after preparation.
Platelet aggregation was measured with a Payton duel channel aggregation module connected to a duel pen recorder for the continuous recording of the increase in light transmission due to clumping of platelets. The 0-100% transmission scale was set with PRP (0%) and PPP (100%). The temperature was set at 37° and the stirring speed at 900 rpm. 0.45 Ml. of PRP was added to a cuvette containing a teflon coating stirring bar and prewarmed at 37° in a water bath. 5 μl of various concentrations of (5Z,7β,9α,11α,13E,15R)-7-fluoro-6,9-epoxy-11,15-dihydroxy-16,16-dimethyl-prosta-5,13-dien-1-oic acid methyl ester, diluted from a stock solution of 5×10^-4 M in DMSO (dimethylsulfoxide) with phosphate buffered saline containing 1 mg/ml. of bovine serum albumin, fraction V, was added and stirred for 1 minute. The inducer of aggregation, arachidonic acid, at a concentration which will cause 50-70% aggregation after 5 minutes, was then added in 50 μl of solution. The % inhibition, set forth in the following Table, was calculated from the ratio of the % aggregation with (5Z,7β,9α,11α,13E,15R)-7-fluoro-6,9-epoxy-11,15-dihydroxy-16,16-dimethyl-prosta-5,13-dien-1-oic acid methyl ester over that with the vehicle×100.
The preparation of phosphate buffered saline and arachidonic acid solution used above is as follows: Phosphate buffered saline (PBS) was prepared by adding 1 mM solution of sodium phosphate aqueous buffer, pH 7.4 to 0.85% by weight/volume of an aqueous sodium chloride solution. Arachidonic acid solution was prepared as follows: A stock solution of 10 mg. per ml. in absolute ETOH was prepared and stored in freezer. To make a 10 mM solution, 0.3 ml. of the stock solution was evaporated to near dryness under nitrogen and redissolved in 0.75 ml. of 0.02NH4 OH (freshly prepared) and 0.2 ml. of PBS. Further dilutions of arachidonic acid were made with NH4 OH and PBS mixture.

For CCCCC(C)(C)[C@H](O)/C=C/[C@@H]1[C@@H]2[C@H](C[C@H]1O)O/C(=C\CCCC(=O)OC)[C@H]2F [(5Z,7β,9α,11α,13E,15R)-7-fluoro-6,9-epoxy-11,15-dihydroxy-16,16-dimethyl-prosta-5,13-dien-1-oic acid methyl ester], which inhibition at 0.0001 µM (concentration 1 × 10^-10 M) is on record?
Its inhibition at 0.0001 µM is 20.8%.

What about the inhibition at 10 pM (concentration 1 × 10^-11 M) of the same compound?
The inhibition at 10 pM was 57.8%.

What about the inhibition at 1 pM (concentration 1 × 10^-12 M) of the same compound?
The inhibition at 1 pM was 71.4%.

What about the inhibition at 100 fM (concentration 1 × 10^-13 M) of the same compound?
The inhibition at 100 fM was 14.2%.

And the inhibition at 300 fM (concentration 3 × 10^-13 M)?
Its inhibition at 300 fM is 20.8%.
